Legend:
[1] = biological target: Recombinant human Cbl-b (aa 36-427) (Homo sapiens (Human), UniProt Q13191); assay: Cbl-b Biochemical Assay (TR-FRET); conditions: read-out: TR-FRET hCbl-b IC50
In short: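 IC50 from 4-parameter fit of % inhibition (DMSO max, reference-inhibitor min), duplicate ten-point series. Compound preincubated with 6 nM Cbl-b, then Src-Zap70 (1-2.5 nM)/0.5 mM ATP reaction 60 min RT; EDTA quench with labelled UBE2D2-Ub and streptavidin-terbium, 60 min, HTRF at 520 nm.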

[2] = biological target: Recombinant human c-Cbl (aa 47-435) (Homo sapiens (Human), UniProt P22681); assay: c-Cbl Biochemical Assay (TR-FRET)
Chain of Recombinant human c-Cbl (aa 47-435) (P22681 47-435): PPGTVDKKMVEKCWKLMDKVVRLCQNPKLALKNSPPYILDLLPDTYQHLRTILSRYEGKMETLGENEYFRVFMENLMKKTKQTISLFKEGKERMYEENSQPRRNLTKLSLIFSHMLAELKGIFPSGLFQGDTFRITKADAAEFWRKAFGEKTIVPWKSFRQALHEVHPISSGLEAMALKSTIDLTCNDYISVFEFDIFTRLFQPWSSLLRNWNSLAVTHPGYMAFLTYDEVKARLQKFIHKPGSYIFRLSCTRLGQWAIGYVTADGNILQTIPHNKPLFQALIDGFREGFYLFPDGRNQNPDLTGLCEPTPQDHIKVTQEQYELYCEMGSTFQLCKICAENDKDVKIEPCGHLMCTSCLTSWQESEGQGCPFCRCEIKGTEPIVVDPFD
In short: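 TR-FRET binding of UBE2D2-Ub-Bodipy (100 nM) to biotinylated c-Cbl (aa 47-435, 6 nM) via Streptavidin-Tb, measured after c-Cbl activation by Src-Zap70 with 0.5 mM ATP (60-90 min RT, 30 min compound preincubation). Ten-point half-log dilutions, 1% DMSO; IC50 by 4-parameter fit of normalized inhibition.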

Chain of Recombinant human Cbl-b (aa 36-427) (Q13191 36-427): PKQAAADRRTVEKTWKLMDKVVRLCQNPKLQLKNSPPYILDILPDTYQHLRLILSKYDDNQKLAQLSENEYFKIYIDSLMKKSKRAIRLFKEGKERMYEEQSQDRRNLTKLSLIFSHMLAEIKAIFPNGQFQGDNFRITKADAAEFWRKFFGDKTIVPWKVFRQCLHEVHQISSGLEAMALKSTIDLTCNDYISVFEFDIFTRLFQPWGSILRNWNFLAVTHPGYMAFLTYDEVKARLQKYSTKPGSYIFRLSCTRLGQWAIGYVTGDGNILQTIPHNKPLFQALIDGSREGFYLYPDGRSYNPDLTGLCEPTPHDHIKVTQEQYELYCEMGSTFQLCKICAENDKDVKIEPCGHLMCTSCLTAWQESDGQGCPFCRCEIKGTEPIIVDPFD

Row | SMILES | IC50 [1] [nM] | IC50 [2] [nM]
1 | CC(NCC1CCC1)c1ccc2c(c1)C(=O)N(c1cc(-c3ccc(C#N)cc3-c3nncn3C)cc(C3CC3)n1)C2 (stereo not drawn) [AJZ-1, 4-(2-(6-(1-((Cyclobutylmethyl)amino)ethyl)-1-oxoisoindolin-2-yl)-6-cyclopropylpyridin-4-yl)-3-(4-methyl-4H-1,2,4-triazol-3-yl)benzonitrile] | ≤ 200 | ≤ 200
2 | Cn1cnnc1-c1cc(C#N)ccc1-c1cc(C2CC2)nc(N2Cc3c(F)cc(CN4CC[C@H]5C[C@H]54)cc3C2=O)c1 [AMX-3, 4-(2-{6-[(1R,5S)-2-Azabicyclo[3.1.0]hexan-2-ylmethyl]-4-fluoro-1-oxo-3H-isoindol-2-yl}-6-cyclopropylpyridin-4-yl)-3-(4-methyl-1,2,4-triazol-3-yl)benzonitrile] | ≤ 200 | ≤ 200
3 | CN(Cc1cc(F)c2c(c1)C(=O)N(c1cc(-c3ccc(C#N)cc3-c3nncn3C)cc(C3CC3)n1)C2)CC1CCC1 [AKT-1, 4-[2-(6-{[(Cyclobutylmethyl)(methyl)amino]methyl}-4-fluoro-1-oxo-3H-isoindol-2-yl)-6-cyclopropylpyridin-4-yl]-3-(4-methyl-1,2,4-triazol-3-yl)benzonitrile] | ≤ 200 | ≤ 200
4 | Cn1cnnc1-c1cc(C#N)ccc1-c1cc(C2CC2)nc(N2Cc3c(cc(CNCC4COC4)c(F)c3F)C2=O)c1 [ANE-1, 4-[2-Cyclopropyl-6-(4,5-difluoro-6-{[(oxetan-3-ylmethyl)amino]methyl}-1-oxo-3H-isoindol-2-yl)pyridin-4-yl]-3-(4-methyl-1,2,4-triazol-3-yl)benzonitrile] | ≤ 200 | ≤ 200
5 | COCCNCc1cc(F)c2c(c1)C(=O)N(c1cc(-c3ccc(C#N)cc3-c3nncn3C)cc(C3CC3)n1)C2 [AIO-9, 4-[2-Cyclopropyl-6-(4-fluoro-6-{[(2-methoxyethyl)amino]methyl}-1-oxo-3H-isoindol-2-yl)pyridin-4-yl]-3-(4-methyl-1,2,4-triazol-3-yl)benzonitrile] | ≤ 200 | ≤ 200
6 | CCOc1cc(-c2ccc(F)cc2-c2nncn2C)cc(N2Cc3c(OC)cc(CN(C)CC4(O)CCC4)cc3C2=O)n1 [AJO-2, 2-(6-Ethoxy-4-(4-fluoro-2-(4-methyl-4H-1,2,4-triazol-3-yl)phenyl)pyridin-2-yl)-6-((((1-hydroxycyclobutyl)methyl)(methyl)amino)methyl)-4-methoxyisoindolin-1-one] | ≤ 200 | ≤ 200
7 | CN(Cc1ccc2c(c1)C(=O)N(c1cc(-c3ccc(F)cc3-c3nncn3C)cc(C3CC3)n1)C2)CC(C)(C)O [AMM-1, 2-{6-Cyclopropyl-4-[4-fluoro-2-(4-methyl-1,2,4-triazol-3-yl)phenyl]pyridin-2-yl}-6-{[(2-hydroxy-2-methylpropyl)(methyl)amino]methyl}-3H-isoindol-1-one] | ≤ 200 | ≤ 200
8 | Cn1cnnc1-c1cc(C#N)ccc1-c1cc(C2CC2)nc(N2Cc3ccc(CO)cc3C2=O)c1 [AHV-1, 4-{2-Cyclopropyl-6-[6-(hydroxymethyl)-1-oxo-3H-isoindol-2-yl]pyridin-4-yl}-3-(4-methyl-1,2,4-triazol-3-yl)benzonitrile] | ≤ 200 | ≤ 200
9 | COc1cc2c(cc1CO)C(=O)N(c1cc(-c3ccc(C#N)cc3-c3nncn3C)cc(C3CC3)n1)C2 [AKL-2, 4-{2-Cyclopropyl-6-[6-(hydroxymethyl)-5-methoxy-1-oxo-3H-isoindol-2-yl]pyridin-4-yl}-3-(4-methyl-1,2,4-triazol-3-yl)benzonitrile] | ≤ 200 | ≤ 200
10 | Cn1cnnc1-c1cc(C#N)ccc1-c1cc(C2CC2)nc(N2Cc3ccc(CNCC4(C)COC4)cc3C2=O)c1 [AMU-2, 4-{2-Cyclopropyl-6-[6-({[(3-methyloxetan-3-yl)methyl]amino}methyl)-1-oxo-3H-isoindol-2-yl]pyridin-4-yl}-3-(4-methyl-1,2,4-triazol-3-yl)benzonitrile] | ≤ 200 | ≤ 200
11 | COC(F)(F)CNCc1cc(F)c2c(c1)C(=O)N(c1cc(-c3ccc(C#N)cc3-c3nncn3C)cc(C3CC3)n1)C2 [ALV-4, 4-[2-Cyclopropyl-6-(6-{[(2,2-difluoro-2-methoxyethyl)amino]methyl}-4-fluoro-1-oxo-3H-isoindol-2-yl)pyridin-4-yl]-3-(4-methyl-1,2,4-triazol-3-yl)benzonitrile] | ≤ 200 | ≤ 200
12 | C[C@H](NCc1ccc2c(c1)C(=O)N(c1cc(-c3ccc(C#N)cc3-c3nncn3C)cc(C3CC3)n1)C2)C1CCC1 [AOK-2, 4-{2-[6-({[(1S)-1-Cyclobutylethyl]amino}methyl)-1-oxo-3H-isoindol-2-yl]-6-cyclopropylpyridin-4-yl}-3-(4-methyl-1,2,4-triazol-3-yl)benzonitrile] | ≤ 200 | ≤ 200
13 | Cn1cnnc1-c1cc(C#N)ccc1-c1cc(C2CC2)nc(N2Cc3ccc(CNCC(C)(C)O)cc3C2=O)c1 [AIE-1, 4-[2-Cyclopropyl-6-(6-{[(2-hydroxy-2-methylpropyl)amino]methyl}-1-oxo-3H-isoindol-2-yl)pyridin-4-yl]-3-(4-methyl-1,2,4-triazol-3-yl)benzonitrile] | ≤ 200 | ≤ 200
14 | CNCCNCc1cc2c(c(C(F)(F)F)c1)CN(c1cc(-c3ccc(C#N)cc3-c3nncn3C)cc(C3CC3)n1)C2=O [AMK-3, 4-{2-Cyclopropyl-6-[6-({[2-(methylamino)ethyl]amino}methyl)-1-oxo-4-(trifluoromethyl)-3H-isoindol-2-yl]pyridin-4-yl}-3-(4-methyl-1,2,4-triazol-3-yl)benzonitrile] | ≤ 200 | ≤ 200
15 | CO[C@H](C)[C@@H](C)NCc1cc(F)c2c(c1)C(=O)N(c1cc(-c3ccc(C#N)cc3-c3nncn3C)cc(C3CC3)n1)C2 [ALC-2, 4-{2-Cyclopropyl-6-[4-fluoro-6-({[(2R,3R)-3-methoxybutan-2-yl]amino}methyl)-1-oxo-3H-isoindol-2-yl]pyridin-4-yl}-3-(4-methyl-1,2,4-triazol-3-yl)benzonitrile] | ≤ 200 | ≤ 200
16 | COC[C@@H](C)NCc1cc(F)c2c(c1)C(=O)N(c1cc(-c3ccc(C#N)cc3-c3nncn3C)cc(C3CC3)n1)C2 [AKH-1, 4-{2-Cyclopropyl-6-[4-fluoro-6-({[(2R)-1-methoxypropan-2-yl]amino}methyl)-1-oxo-3H-isoindol-2-yl]pyridin-4-yl}-3-(4-methyl-1,2,4-triazol-3-yl)benzonitrile] | ≤ 200 | ≤ 200
17 | Cn1cnnc1-c1cc(C#N)ccc1-c1cc(C2CC2)nc(N2Cc3c(F)cc(CNCC4(F)CC4)cc3C2=O)c1 [AKZ-2, 4-{2-Cyclopropyl-6-[4-fluoro-6-({[(1-fluorocyclopropyl)methyl]amino}methyl)-1-oxo-3H-isoindol-2-yl]pyridin-4-yl}-3-(4-methyl-1,2,4-triazol-3-yl)benzonitrile] | ≤ 200 | ≤ 200
18 | CCOc1cc(-c2ccc(Cl)cc2-c2nncn2C)cc(N2Cc3ccc(CNCC4(O)CCC4)cc3C2=O)n1 [AHT-2, 2-(4-(4-Chloro-2-(4-methyl-4H-1,2,4-triazol-3-yl)phenyl)-6-ethoxypyridin-2-yl)-6-((((1-hydroxycyclobutyl)methyl)amino)methyl)isoindolin-1-one] | ≤ 200 | ≤ 200
19 | Cn1cnnc1-c1cc(C#N)ccc1-c1cc(C2CC2)nc(N2Cc3ccc(CNCC4COC4)cc3C2=O)c1 [AHZ-2, 4-[2-Cyclopropyl-6-(6-{1[(oxetan-3-ylmethyl)amino]methyl}-1-oxo-3H-isoindol-2-yl)pyridin-4-yl]-3-(4-methyl-1,2,4-triazol-3-yl)benzonitrile] | ≤ 200 | ≤ 200
20 | CC(C)OCCNCc1ccc2c(c1)C(=O)N(c1cc(-c3ccc(C#N)cc3-c3nncn3C)cc(C3CC3)n1)C2 [AIL-3, 4-[2-Cyclopropyl-6-(6-{[(2-isopropoxyethyl)amino]methyl}-1-oxo-3H-isoindol-2-yl)pyridin-4-yl]-3-(4-methyl-1,2,4-triazol-3-yl)benzonitrile] | ≤ 200 | ≤ 200
21 | Cn1cnnc1-c1cc(C#N)ccc1-c1cc(C2CC2)nc(N2Cc3c(F)cc(CN4CC5(COC5)C4)cc3C2=O)c1 [AMS-2, 4-[2-Cyclopropyl-6-(4-fluoro-6-{2-oxa-6-azaspiro [3.3]heptan-6-ylmethyl}-1-oxo-3H-isoindol-2-yl)pyridin-4-yl]-3-(4-methyl-1,2,4-triazol-3-yl)benzonitrile] | ≤ 200 | ≤ 200
22 | Cn1cnnc1-c1cc(C#N)ccc1-c1cc(C2CC2)nc(N2Cc3c(F)cc(CN4CC5CC5C4)cc3C2=O)c1 (stereo not drawn) [AKQ-2, 4-[2-(6-{3-Azabicyclo[3.1.0]hexan-3-ylmethyl}-4-fluoro-1-oxo-3H-isoindol-2-yl)-6-cyclopropylpyridin-4-yl]-3-(4-methyl-1,2,4-triazol-3-yl)benzonitrile] | ≤ 200 | ≤ 200
23 | CC[C@@H](O)CNCc1ccc2c(c1)C(=O)N(c1cc(-c3ccc(C#N)cc3-c3nncn3C)cc(C3CC3)n1)C2 [AIP-2, 4-{2-Cyclopropyl-6-[6-({[(2R)-2-hydroxybutyl]amino}methyl)-1-oxo-3H-isoindol-2-yl]pyridin-4-yl}-3-(4-methyl-1,2,4-triazol-3-yl)benzonitrile] | ≤ 200 | ≤ 200
24 | Cn1cnnc1-c1cc(C#N)ccc1-c1cc(C2CC2)nc(N2Cc3cc(Cl)c(CO)cc3C2=O)c1 [AKN-12, 4-{2-[5-Chloro-6-(hydroxymethyl)-1-oxo-3H-isoindol-2-yl]-6-cyclopropylpyridin-4-yl}-3-(4-methyl-1,2,4-triazol-3-yl)benzonitrile] | ≤ 200 | ≤ 200

Source: patent publication US12325697B2 (Nimbus Clio, Inc., priority 2021, dated 2025)
